“And” between values parts separate entries of the source, which are not always exact repeats. Equal values may be shown once.
Legend:
fish = assay: Safety of imidacloprid treatment on fish; type: in vivo
Experimental: The safety of the imidacloprid treatment on fish was assessed. Fish held in a flow through tank containing 271.8 L of sea water were exposed to 65 ppm w/v of the active ingredient imidacloprid. 17.67 g of imidacloprid was dissolved in 100 ml of dimethyl sulfoxide (DMSO) and the solution was added to approximately 900 ml sea water and mixed. The flow on the through tank was disabled and the solution of imidacloprid was added.
The fish were exposed to 65 ppm imidacloprid in static water for 1 hour and observed for behavioural changes at 5-10 minute intervals. The fish were then held for a further 7 days before being terminated.

Lepeophtheirus salmonis = assay: Sea lice recovery in clean seawater after exposure; type: in vivo; conditions: any concentration (10-25 mg/l), post-exposure period up to 6 hours
Experimental: Imidacloprid exposed parasites from both the relative efficacy and rate determination studies (both those removed manually from their host post-treatment and those that detached during treatment) were immersed into clean seawater and observed for signs of recovery.
At the time of the first observation, exposed individuals were determined to be either dead or still active. Of those still active, muscular excitation was uncoordinated, uncontrolled and limited.

sea lice = assay: Comparison on isolated sea lice (in vitro bath exposure); conditions: 60 min exposure; for % effect / Immobilised / Live: registered approx. 20 h after end of exposure
Experimental: Both pre-adult and adult stages (mobile stages) of both sexes were used, and they were equally distributed among groups. The sea lice were exposed to imidacloprid for 60 minutes, azamethiphos for 60 minutes and deltamethrin for 30 minutes in one litre baths at a range of concentrations (Tables 6, 7 and 8). The sea lice were transferred to clean aerated seawater after treatment. The temperature of the seawater during the experiment was 12° C., but during exposure the temperature raised to approx. 14° C. in regimes exposed for 60 min. (imidacloprid and azamethiphos) and to 13° C. for the regime exposed in 30 minutes (deltamethrin).
The numbers of live and immobilised (including killed) lice in each regime were registered approximately 20 h after end of exposure. Each louse was individually investigated.

farmed Atlantic salmon = assay: Observation of fish during field treatment; type: in vivo; conditions: 20 ppm, 60 minutes, well boat
Experimental: The effectiveness of imidacloprid against pre-adult and adult stages of L. salmonis and Caligus sp. infections on farmed Atlantic salmon was investigated by performing pre- and post-treatment sea lice counts on salmon undergoing a treatment with imidacloprid. This trial was conducted at a commercial salmon farm in Norway. The salmon were pumped onto a well boat and were exposed to 20 ppm imidacloprid for 60 minutes. The average weight of the salmon was 3.5 kg and the average number of salmon per pen was 180,000. 30 fish per pen were assessed for L. salmonis and Caligus sp., and the number of each L. salmonis life stage found was recorded. This was performed within 24 hours prior to treatment, and within 24 hours after treatment.
The numbers of sea lice observed per fish for this trial for each of the four tested pens according to sea lice life cycle state, pre- or post-administration of active are presented in Table 5.

[1] = isolated sea lice, immobilisation approx. 20 h after exposure

Q: Which “adverse reactions during monitoring after exposure” value (fish; 65 ppm w/v for 1 hour, monitored a further 7 days) does the source give for `O=[N+]([O-])NC1=NCCN1Cc1ccc(Cl)nc1` [imidacloprid] here?
A: The value was “no adverse reactions being noted”.

Q: What about the “external pathologies on termination” value (fish; 65 ppm w/v for 1 hour, terminated after 7 days) of the same compound?
A: The value was “no external pathologies were noted”.

Q: What about the “changes in fish behaviour during the exposure period” value (fish; 65 ppm w/v, static water, 1 hour) of the same compound?
A: Its value is “No observable changes in fish behaviour”.

Q: And the “functional recovery of exposed parasites in clean seawater” value (Lepeophtheirus salmonis)?
A: Its value is “no clear signs of functional recovery”.

Q: What about the “% effect” value (sea lice; imidacloprid 5 ppm) of the same compound?
A: The value was 30%.

Q: And the Immobilised (sea lice; imidacloprid 5 ppm)?
A: The Immobilised was 3.

Q: What about the Live (sea lice; imidacloprid 5 ppm) of the same compound?
A: The Live was 7.

Q: What about the “% effect” value (sea lice; imidacloprid 10 ppm) of the same compound?
A: Its value is 40% and 50%.

Q: What about the Immobilised (sea lice; imidacloprid 10 ppm) of the same compound?
A: Its Immobilised is 4 and 5.

Q: What about the Live (sea lice; imidacloprid 10 ppm) of the same compound?
A: The Live was 6 and 5.

Q: And the “% effect” value (sea lice; imidacloprid 15 ppm)?
A: Its value is 100%.

Q: And the Immobilised (sea lice; imidacloprid 15 ppm)?
A: Its Immobilised is 10.

Q: And the Live (sea lice; imidacloprid 15 ppm)?
A: The Live was 0.

Q: And the “% effect” value (sea lice; imidacloprid 20 ppm)?
A: Its value is 100%.

Q: And the Immobilised (sea lice; imidacloprid 20 ppm)?
A: Its Immobilised is 10.

Q: And the Live (sea lice; imidacloprid 20 ppm)?
A: Its Live is 0.

Q: And the “% effect” value (sea lice; imidacloprid 30 ppm)?
A: The value was 100%.

Q: What about the Immobilised (sea lice; imidacloprid 30 ppm) of the same compound?
A: Its Immobilised is 10.

Q: And the Live (sea lice; imidacloprid 30 ppm)?
A: Its Live is 0.

Q: What about the “estimated EC90 value” (sea lice; [1]) of the same compound?
A: The value was 14.4 ppm.

Q: What about the “estimated ECso value” (sea lice; [1]) of the same compound?
A: Its value is 7.6 ppm.

Q: And the “adverse behaviours of fish throughout treatment” value (farmed Atlantic salmon)?
A: The value was “no adverse behaviours seen”.
